Results taken from patent US8507559B2, “Cyclohexenyl modulators of chemokine receptor activity” (Bristol-Myers Squibb Company, priority 2008, dated 2013).

Target: T1, CCR2 (Homo sapiens, UniProt P41597)
T1 construct: THP-1 human monocytic leukemic cell line, which expresses endogenous CCR2; endogenous in cells; host or cells: human peripheral blood mononuclear cells, human monocytes or THP-1 cells
T1 sequence (P41597 1-360 isoform P41597-2): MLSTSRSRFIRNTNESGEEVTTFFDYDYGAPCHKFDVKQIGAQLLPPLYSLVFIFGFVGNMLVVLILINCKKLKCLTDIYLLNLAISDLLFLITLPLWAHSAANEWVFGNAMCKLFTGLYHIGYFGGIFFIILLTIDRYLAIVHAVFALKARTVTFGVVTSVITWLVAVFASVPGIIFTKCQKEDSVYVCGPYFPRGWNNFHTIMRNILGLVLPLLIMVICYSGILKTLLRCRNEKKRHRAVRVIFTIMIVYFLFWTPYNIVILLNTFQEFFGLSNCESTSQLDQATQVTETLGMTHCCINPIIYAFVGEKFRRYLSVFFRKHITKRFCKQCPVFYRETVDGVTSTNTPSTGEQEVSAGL
Assay: CCR2 binding: antagonism of 125I-MCP-1 binding (human PBMC / THP-1 whole cell)
Conditions: n = 1 unless otherwise noted
Procedure: Antagonism of MCP-1 Binding to Human PBMC
Millipore filter plates (#MABVN1250) are treated with 100 μl of binding buffer (0.5% bovine serum albumin, 20 mM HEPES buffer and 5 mM magnesium chloride in RPMI 1640 media) for thirty minutes at room temperature. To measure binding, 50 μl of binding buffer, with or without a known concentration compound, is combined with 50 μl of ^125-I labeled human MCP-1 (to give a final concentration of 150 pM radioligand) and 50 μl of binding buffer containing 5×10^5 cells. Cells used for such binding assays can include human peripheral blood mononuclear cells isolated by Ficoll-Hypaque gradient centrifugation, human monocytes (Weiner et al., J. Immunol. Methods. 1980, 36, 89), or the THP-1 cell line which expresses the endogenous receptor. The mixture of compound, cells and radioligand are incubated at room temperature for thirty minutes. Plates are placed onto a vacuum manifold, vacuum applied, and the plates washed three times with binding buffer containing 0.5M NaCl. The plastic skirt is removed from the plate, the plate allowed to air dry, the wells punched out and counted. The percent inhibition of binding is calculated using the total counts obtained in the absence of any competing compound and the background binding determined by addition of 100 nM MCP-1 in place of the test compound.
THP-1 Monocytic Cell Binding: Whole Cell-based Assay
The human CCR2 binding assay was also established with the THP-1 human monocytic leukemic cell line, which expresses endogenous CCR2, using ^125I-human MCP-1 as the tracer ligand. Radioligand competition binding assays were used for assessment of binding affinity of test compounds to the CCR2 receptor. For radioligand competition studies, 100 μl containing 2.5×10^5 THP-1 cells/well (in assay buffer containing 50 mM HEPES, pH7.4, 5 mM MgCl2, 1 mM CaCl2 and 0.5% BSA) were added to 96-well assay plates containing the test compounds in 3-fold serial dilution, with final concentrations ranging from 5 μM to 100 pM. Subsequently, 50 μl ^125I-MCP-1 radioligand at a final concentration of 0.2 nM in assay buffer were added to the reaction. After a 90 minute incubation period at room temperature, the binding reaction was terminated by harvesting on GF/B filter plates (PerkinElmer Cat. No. 6005177) followed by washing with ice-cold wash buffer (50 mM HEPES, pH 7.4, 0.1% BSA, 0.5 M NaCl) to remove unbound ligand. After washing, the plate was dried for 45 minutes at 60° C. followed by addition of 40 μl MicroScint 20 scintillation fluid, sealed and analyzed by the Packard TopCount reader. Non-specific binding was determined in the presence of 10 μM (a molar excess of 5000 fold) of an in-house CCR2 small molecule antagonist (CCR2 IC50=2 nM). Specific binding of ^125I-MCP-1 was calculated as the difference between total and non-specific binding. The competition data was plotted as a percentage inhibition of radioligand specific bound in the absence of test compound (percent of total signal). After correcting for non-specific binding, IC50 values were determined. The IC50 is defined as the concentration of test compound required to reduce ^125I-MCP-1 specific binding by 50% and was calculated using the four parameter logistic equation to fit the normalized data.

Compound	Ki
C[C@@H]1CC=C(C(=O)NS(=O)(=O)C(F)(F)F)[C@@](C)(c2ccc(Cl)c(Cl)c2)C1 (racemic) [Example 3-02, (4RS,6RS)-6-(3,4-dichlorophenyl)-4,6-dimethyl-N-(trifluoromethylsulfonyl)-cyclohex-1-enecarboxamide]	6600 nM
C[C@@H]1CC=C(C(=O)NS(=O)(=O)c2ccccc2)[C@@](C)(c2ccc(Cl)c(Cl)c2)C1 (racemic) [Example 3-03, (4RS,6RS)-6-(3,4-dichlorophenyl)-4,6-dimethyl-N-(phenylsulfonyl)cyclohex-1-enecarboxamide]	150 nM
CC(C)(C)OC[C@@H]1CC=C(C(=O)O)[C@@](C)(c2ccc(Cl)c(C(F)(F)F)c2)C1 (racemic) [Example 10, (4RS,6RS)-4-(tert-butoxymethyl)-6-(4-chloro-3-(trifluoromethyl)phenyl)-6-methylcyclohex-1-enecarboxylic acid]	6200 nM
COc1ccccc1C1(C)CCCC=C1C(=O)O (centres unmarked) [Example 1-07, 6-(2-methoxyphenyl)-6-methyl methylcyclohex-1-enecarboxylic acid]	10000 nM
C[C@H]1CC=C(C(=O)O)[C@](C)(c2ccc(Cl)c(C(F)(F)F)c2)C1 [Example 4-01a, (4S,6S)-6-(4-chloro-3-(trifluoromethyl)-phenyl)-4,6-dimethylcyclohex-1-enecarboxylic acid]	9 nM
C[C@@H]1CC=C(C(=O)O)[C@@](C)(c2ccc(Cl)c(C(F)(F)F)c2)C1 [Example 4-01b, (4R,6R)-6-(4-chloro-3-(trifluoromethyl)phenyl)-4,6-dimethylcyclohex-1-enecarboxylic acid]	4500 nM

Next, values leading:

Ki	Compound
1000 nM	CC1=C(C(=O)O)[C@@](O)(c2ccc(Cl)c(Cl)c2)C[C@H](C)C1 (racemic) [Example 5, (4RS,6SR)-6-(3,4-dichlorophenyl)-6-hydroxy-2,4,-dimethylcyclohex-1-enecarboxylic acid]
580 nM	CC1=C(C(=O)O)[C@@](C)(c2ccc(Cl)c(Cl)c2)C[C@H](C)C1 (racemic) [Example 6, (4RS,6RS)-6-(3,4-dichlorophenyl)-2,4,6-trimethylcyclohex-1-enecarboxylic acid]
210 nM	C[C@]1(c2ccc(Cl)c(C(F)(F)F)c2)C[C@H](CO)CC=C1C(=O)O (racemic) [Example 7, (4RS,6RS)-6-(4-chloro-3-(trifluoromethyl)-phenyl)-4-(hydroxymethyl)-6-methylcyclohex-1-enecarboxylic acid]
5500 nM	CC(=O)NC[C@@H]1CC=C(C(=O)O)[C@@](C)(c2ccc(Cl)c(C(F)(F)F)c2)C1 (racemic) [Example 11, (4RS,6RS)-4-(acetamidomethyl)-6-(4-chloro-3-(trifluoromethyl)phenyl)-6-methylcyclohex-1-enecarboxylic acid]
2500 nM	C[C@]1(c2ccc(Cl)c(C(F)(F)F)c2)C[C@H](OCc2ccccc2)CC=C1C(=O)O (racemic) [Example 12, (4RS,6RS)-4-(benzyloxy)-6-(4-chloro-3-(trifluoromethyl)phenyl)-6-methylcyclohex-1-enecarboxylic acid]
36 nM	C[C@H]1CC=C(C(=O)O)[C@](C)(c2ccc(Cl)c(Cl)c2)C1 [Example 4-02a, (45,65)-6-(3,4-dichlorophenyl)-4,6-dimethylcyclohex-1-enecarboxylic acid]
5800 nM	C[C@@H]1CC=C(C(=O)O)[C@@](C)(c2ccc(Cl)c(Cl)c2)C1 [Example 4-02b, (4R,6R)-6-(3,4-dichlorophenyl)-4,6-dimethylcyclohex-1-enecarboxylic acid]
310 nM	(4RS,6RS)-6-(4-chloro-3-(trifluoromethyl)-phenyl)-4-(hydroxymethyl)-6-methylcyclohex-1-enecarboxylic acid [Example 9]
